Results taken from US6841532B2, “Peptides and their use to ameliorate cell death” (priority 1995, dated 2005).
“Also recorded” adds a separate entry of the source. Where no end group is shown, it is not given here.

How the values were obtained:
[1] = tested on: Cardiac myocytes from embryonic chick hearts; experiment: Amelioration of ammonium persulfate-induced cell death in cultured cardiac myocytes (Trypan blue exclusion); type: cell-based; conditions: 1 mM ammonium persulfate
Method: Cardiac myocytes from embryonic chick hearts were grown in culture using the procedures described in Rabkin, Exper. Cell. Res. 188:262-266, 1990. Briefly, white Leghorn eggs were incubated in an automatic incubator (March Rollex, Calif., USA) for 7 days at 37.8° C. and 87% humidity. Hearts were then isolated under sterile conditions from the 7-day chick embryo. Blood and connective tissue were removed under a dissecting microscope in a solution of balanced salts (DMS8) with the following composition (mM): NaCl 116, KCl 5.4, NaH2PO4 1 and dextrose 5.6. Disaggregation was carried out by 5-minute digestions in 0.005% trypsin (Gibco Laboratories, Burlington, Ontario), 0.1% BSA and 1×10^7 DNAse per mL, DMS8 (Worthington Biochemicals, Frederic, N.J., USA) at 37° C. After three digestions, the digests were diluted 1:5 in culture medium and the cells centrifuged for three minutes at 1000 g and plated.
The cultured cardiac myocytes were incubated with 1 mM ammonium persulfate for 2 hours at 37° C. to induce oxidative damage. Cell viability was assessed by Trypan blue exclusion. Six samples containing cells were then incubated with 0.0, 0.000375, 0.00375, 0.0375, 0.375 and 37.5 μM streptokinase (Hoechts-Roussel Pharmaceuticals), respectively, and 0.0, 0.000246, 0.00246, 0.0246, 0.246 and 24.6 μM plasminogen, respectively (see Table 1), for 1-2 hours at 37° C. and assessed by Trypan blue exclusion.
Control cell samples were treated with 1 mM ammonium persulfate in the absence of streptokinase (STK) and plasminogen under the same conditions.
The results are described in Table 1 in terms of the percent cell death induced by ammonium persulfate. The data represents the mean of six (6) duplicate determinations, none of which differed by more than 5%.
Each of the nineteen (19) resulting fractions was tested for the peptide's ability to ameliorate cell death according to the assay described in Example 1. The data in Table 2 represent the mean of duplicate determinations. None of the determinations differed by more than 5%.
Based on the sequences identified in Example 2, peptides were synthesized using a commercially available automated synthesizer (Applied Biosystems 430 A Peptide Synthesizer), purified by and tested according to the assay described in Example 1 for their ability to ameliorate cell death in cardiac myocytes. The sequences for these peptides were:
Table 3 presents the percentage of dead cells as measured by Trypan blue assessment as described in Example 1.

[2] = tested on: Spinal cord cells isolated from embryonic chicks; experiment: Amelioration of ammonium persulfate-induced cell death in spinal cord cells (trypan blue); type: cell-based, chick; conditions: 1 mM ammonium persulfate for 1 or 2 hours; 10 μg/ml or 20 μg/ml peptide; versus control
Method: Spinal cord cells isolated from embryonic chicks were grown in culture for 5-7 days. Chick spinal cord cells were cultured as described briefly as follows. Cell cultures were prepared from 7-day chick embryo. Ventral portions of spinal cord were dissected free of meninges and dorsal root ganglia and diced into small pieces in Dulbecco's phosphate-buffered saline (PBS). Tissue fragments were incubated in PBS with 0.25% trypsin and 20 μg/ml DNase for 30 min at 36° C. Trypsin was inactivated by the addition of horse serum and cells were dissociated by gentle pipetting.
Isolated cells were washed, resuspended in medium and plated onto plastic coverslips in petri dishes. The medium consisted of Eagle's minimum essential medium (MEM), 10% fetal bovine serum (FBS), 5 mg/ml D-glucose and 25 μg/ml gentamycin. Cells were grown in an incubator with 5% CO2/95% air at 37° C. and the medium was renewed twice a week. Cells were used for experiment after 14 days.
Both the experimental and control cultures were treated with 1 mM ammonium persulfate for 1 or 2 hours at 37° C. The experimental cultures were treated with either 10 μg/ml or 20 μg/ml of the 20 mer peptide (SEQ ID NO: 6) for the same length of time. The number of dead cells, assayed by trypan blue, in the experimental groups was compared to that in the control group.

TF-1 = experiment: Serum-deprivation-induced cell death, 3H-thymidine incorporation, TF-1; type: cell-based, human; conditions: TF-1 starved 30 hours, 20 μg/ml, then washed, IL-3 for 22 hours; control 14,728 ± 2,825
Method: (§1) Cells in the latter group were washed free of the 20 mer (SEQ. ID NO. 6), given saturating concentrations of growth factor (5 ng/ml of human interleukin-3) and incubated for an additional 22 hours. After the 22 hours, 1 μCi of ^3H-thymidine (2 Ci/mmol) was added and, after 2 hours, the cellular contents were harvested onto filtermats. Then ^3H-thymidine incorporation was measured using an LKB Betaplate Harvester and liquid scintillation counter. Note the increased viability of cells treated with the 20 mer peptide (SEQ ID NO: 6).

M07E = experiment: Serum-deprivation-induced cell death, 3H-thymidine incorporation, M07E; type: cell-based, human; conditions: M07E starved 30 hours, 20 μg/ml, then washed, IL-3 for 22 hours; control 2,003 ± 468
Method: as §1

[3] = reverse phase HPLC fractions of streptokinase incubated 1:1 with plasminogen

Row | Substance | percentage of dead cells ([1]; Peptide Concentration 5 μM) [%] | percentage of dead cells ([1]; Peptide Concentration 20 μM) [%] | other results
1 | SVDVEYTQFTDFRGKLTKLL [20 mer] | 47.6 | 23.1 | percentage of dead cells ([1]; Peptide Concentration 10 μM): 35.4%; percentage of dead cells ([1]; Peptide Concentration 15 μM): 31.6%; percentage of dead cells ([1]; Peptide Concentration 20 μM, listed as 20mer): ~20%; survival of spinal cord cells (number of dead cells, trypan blue) [2]: dramatically enhanced cell survival; also recorded: almost completely prevented cell death; 3H-THYMIDINE COUNTS (COUNTS PER MINUTE) (TF-1): 32,701 ± 5,565 COUNTS PER MINUTE; 3H-THYMIDINE COUNTS (COUNTS PER MINUTE) (M07E): 4,282 ± 212 COUNTS PER MINUTE
2 | EVTEEEETVPLKThE-AMIDE [Irrelevant #3, reference compound] | 79.5 | 81.1 | –
3 | SVDVEYTVQFTPLNPDDDFRP [fraction 13] | – | – | Cell Death (%) [1, 3]: 39%
4 | YVDVDTNELLK [11 mer] | 38.6 | – | –
5 | NFLRGKLKLYTGEACRTGDR [Irrelevant #1, irrelevant peptide utilized as negative control, reference compound] | 77.1 | 67.6 | –
6 | RLILDSRVLERYLLEAKEAE [Irrelevant #2, irrelevant peptide utilized as negative control, reference compound] | 77.4 | 76.1 | –
7 | YVDVDT [6 mer #2] | 37.0 | 25.4 | –
8 | SVDVEYTVQFTPLNPDDD [18 mer] | – | 54.4 | –
9 | Streptokinase [reference compound] | – | – | Cell Death (%) ([1]; 0.000375 μM streptokinase with 0.000246 μM plasminogen, control 81): 50%; Cell Death (%) ([1]; 0.00375 μM streptokinase with 0.00246 μM plasminogen, control 81): 37%; Cell Death (%) ([1]; 0.0375 μM streptokinase with 0.0246 μM plasminogen, control 81): 29%; Cell Death (%) ([1]; 0.375 μM streptokinase with 0.246 μM plasminogen, control 81): 25%; Cell Death (%) ([1]; 37.5 μM streptokinase with 24.6 μM plasminogen, control 81): 16%
10 | SVDVEY [6 mer #1] | 51.9 | 36.8 | –
11 | YVDVDTNELLKSEQLLTASE [fraction 12] | – | – | Cell Death (%) [1, 3]: 29%
